Results as given in patent US10501805B2, “Methods for determining responsiveness to MEK/ERK inhibitors” (CROWN BIOSCIENCE, INC. (TAICANG), priority 2014, dated 2019).

Experiments:
Experiment in all cases: CellTiter-Glo cell viability, IC50 determination
Format in all cases: cell-based
PC-3 = settings: Homo sapiens, 72 h; PC-3 cell line; 3-day CTG assay; read-out: Absolute IC50
Procedure: (§1) All the cells will be cultured in the media supplemented with 10% FBS except for which are marked specially, in the temperature of 37° C., 5% CO2 and 95% humidity.
(§2) Cell viability is assayed by using CellTiter-Glo® Luminescent Cell Viability Assay Kit (Cat. No.: G7572, Promega. Store at −20° C.). To prepare the CellTiter_Glo Reagent, the CellTiter-Glo Buffer was thawed and equilibrated to room temperature prior to use. For convenience the CellTiter-Glo Buffer may be thawed and stored at room temperature for up to 48 hours prior to use. The lyophilized CellTiter-Glo Substrate is equilibrated to room temperature prior to use. The appropriate volume (100 ml) of CellTiter-Glo Buffer is transferred into the amber bottle containing CellTiter-Glo Substrate to reconstitute the lyophilized enzyme/substrate mixture, which forms the CellTiter-Glo Reagent. In certain cases, the entire liquid volume of the CellTiter-Glo Buffer bottle may be added to the CellTiter-Glo Substrate vial. Mix by gently vortexing, swirling or by inverting the contents to obtain a homogeneous solution. The CellTiter-Glo Substrate should go into solution easily in less than one minute.
(§3) The day before the experiment (Day −1), cells were dissociated during the logarithmic growth period with Cell Disassociation Buffer (Gibco 13151-014) and mixed with appropriate cell media and centrifuge at 1000 rpm for 3 minutes. The cells were re-suspended and counted using Countstar before adjusting cell concentrations to optimized density (i.e. 4.44×10^4 cells/ml) with respective culture medium listed in Table 1 for 3-day CTG assay (The cell density was optimized before actual study; cell density used in the test may vary for different cell lines). 90 μl cell suspensions were added to two 96-well plates (plates A and B) with the final cell density of 4×10^3 cells/well for 3-day CTG assay (the cell density was optimized before actual study; cell density used in the test may vary for different cell lines). The plate A and B group were incubated for overnight in humidified incubator at 37° C. with 5% CO2.
(§4) On Day 0, for plate A group, 10 μl culture medium was added to each well for T0 reading. CellTiter-Glo® Reagent was added at equal volume of cell culture medium present in each well (e.g., add 100 μl of reagent to 100 μl of medium containing cells for a 96-well plate). Contents were mixed for 2 minutes on an orbital shaker to facilitate cell lysis. The plate was allowed to incubate at room temperature for 10 minutes to stabilize luminescent signal. Backseal black sticker was added to the bottom of each plate. Luminescence was recorded using EnVision Multi Label Reader. This formed the basis for T0 value.
(§5) On Day 0, the test articles and positive controls were dissolved at the concentration indicated at Test Article Dilution map. 100× solution in PBS was prepared and then diluted with appropriate culture media (1:10) into 10×working solutions. 10 μl (10×) drug solutions were dispensed in each well (triplicate for each drug concentration) of the plate B group according to plate inoculation map. The test plates were incubated for […] in the humidified incubator at 37° with 5% CO2.
(§6) On Day 3, CellTiter-Glo® Reagent was added at equal volume of cell culture medium present in each well (e.g., add 100 μl of reagent to 100 μl of medium containing cells for a 96-well plate). Contents were mixed for 2 minutes on an orbital shaker to induce cell lysis. The plate was allowed to incubate at room temperature for 10 minutes to stabilize luminescent signal. Backseal black sticker was placed to the bottom of each plate. Luminescence was recorded using EnVision Multi Label Reader.
(§7) In order to calculate IC50s, a dose-response curve was fitted using a nonlinear regression model with a sigmoidal dose response. The formula for calculating surviving rate was shown below; Absolute IC50 is calculated where Y axis set at 50% using GraphPad Prism 5.0. Software. […]

HepG2 = settings: Homo sapiens, 72 h; HepG2 cell line; 3-day CTG assay; read-out: Absolute IC50
Procedure: as §1, §2, §3, §4, §5, §6, §7

SNU-1 = settings: Homo sapiens, SNU1, 72 h; SNU-1 cell line; 3-day CTG assay; read-out: Absolute IC50
Procedure: as §1, §2, §3, §4, §5, §6, §7

MIAPaCa2 = settings: Homo sapiens, MIA PaCa-2, 72 h; MIAPaCa2 cell line; 3-day CTG assay; read-out: Absolute IC50
Procedure: as §1, §2, §3, §4, §5, §6, §7

Colo205 = settings: Homo sapiens, COLO 205, 72 h; Colo205 cell line; 3-day CTG assay; read-out: Absolute IC50
Procedure: as §1, §2, §3, §4, §5, §6, §7

SK-LU-1 = settings: Homo sapiens, 72 h; SK-LU-1 cell line; 3-day CTG assay; read-out: Absolute IC50
Procedure: as §1, §2, §3, §4, §5, §6, §7

HCT116 = settings: Homo sapiens, HCT-116, 72 h; HCT116 cell line; 3-day CTG assay; read-out: Absolute IC50
Procedure: as §1, §2, §3, §4, §5, §6, §7

NCI-H1651 = settings: Homo sapiens, 72 h; NCI-H1651 cell line; 3-day CTG assay; read-out: Absolute IC50
Procedure: as §1, §2, §3, §4, §5, §6, §7

NCI-H1666 = settings: Homo sapiens, 72 h; NCI-H1666 cell line; 3-day CTG assay; read-out: Absolute IC50
Procedure: as §1, §2, §3, §4, §5, §6, §7

NCI-H460 = settings: Homo sapiens, 72 h; NCI-H460 cell line; 3-day CTG assay; read-out: Absolute IC50
Procedure: as §1, §2, §3, §4, §5, §6, §7

A549 = settings: Homo sapiens, 72 h; A549 cell line; 3-day CTG assay; read-out: Absolute IC50
Procedure: as §1, §2, §3, §4, §5, §6, §7

HT1376 = settings: Homo sapiens, HT-1376, 72 h; HT1376 cell line; 3-day CTG assay; read-out: Absolute IC50
Procedure: as §1, §2, §3, §4, §5, §6, §7

NCI-H1155 = settings: Homo sapiens, 72 h; NCI-H1155 cell line; 3-day CTG assay; read-out: Absolute IC50
Procedure: as §1, §2, §3, §4, §5, §6, §7

BT474 = settings: Homo sapiens, BT-474, 72 h; BT474 cell line; 3-day CTG assay; read-out: Absolute IC50
Procedure: as §1, §2, §3, §4, §5, §6, §7

SW480 = settings: Homo sapiens, 72 h; SW480 cell line; 3-day CTG assay; read-out: Absolute IC50
Procedure: as §1, §2, §3, §4, §5, §6, §7

NCI-H441 = settings: Homo sapiens, 72 h; NCI-H441 cell line; 3-day CTG assay; read-out: Absolute IC50
Procedure: as §1, §2, §3, §4, §5, §6, §7

Row | IC50 (PC-3) [nM] | IC50 (HepG2) [nM] | IC50 (SNU-1) [nM] | IC50 (MIAPaCa2) [nM] | IC50 (Colo205) [nM] | IC50 (SK-LU-1) [nM] | IC50 (HCT116) [nM] | IC50 (NCI-H1651) [nM] | IC50 (NCI-H1666) [nM] | IC50 (NCI-H460) [nM] | IC50 (A549) [nM] | IC50 (HT1376) [nM] | IC50 (NCI-H1155) [nM] | IC50 (BT474) [nM] | IC50 (SW480) [nM] | IC50 (NCI-H441) [nM] | Structure (SMILES)
1 | 14300 | 130 | 640 | 210 | 40 | 4690 | 450 | 48800 | 920 | 5530 | 1780 | 4270 | – | – | – | – | O=C(Nc1ccc2[nH]nc(-c3ccncc3)c2c1)[C@@H]1CCN(CC(=O)N2CCN(c3ccc(-c4ncccn4)cc3)CC2)C1 [SCH772984, (R)-1-(2-oxo-2-(4-(4-(pyrimidin-2-yl)phenyl)piperazin-1-yl)ethyl)-N-(3-(pyridin-4-yl)-1H-indazol-5-yl)pyrrolidine-3-carboxamide]
2 | – | – | 100 | 30 | – | – | 40 | – | 130 | – | 240 | – | 636000 | 39000 | 6650 | 325000 | CC(=O)Nc1cccc(-n2c(=O)n(C3CC3)c(=O)c3c(Nc4ccc(I)cc4F)n(C)c(=O)c(C)c32)c1 [Trametinib, N-(3-{3-Cyclopropyl-5-[(2-fluoro-4-iodophenyl)amino]-6,8-dimethyl-2,4,7-trioxo-3,4,6,7-tetrahydropyrido[4,3-d]pyrimidin-1(2H)-yl}phenyl)acetamide]
